Assay results: paper PMC2212116 (The Journal of Experimental Medicine, 1998)

Tested on: mouse and human MHC class II molecules
Test: Competitive assay for MHC class II binding, alleles taken together
Details: competition with known conventional peptide antigens that bind to the class II groove

## H2B10–33: epitope for other pathogenic Th cells of lupus, localized in histone H2B10–33
  binding to class II alleles (in words): did not show promiscuous binding
